Measured values reported in ChEMBL document CHEMBL1201862, “PubChem BioAssay data set” (2004).
Where a name gives a salt, the structure may show the parent alone.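 Values below derive from 48-hour exposures of cells grown in 96-well plates, with endpoints linearly interpolated between the two concentrations bracketing the appropriate inhibition level. GI50 marks 50% less growth.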 Calls of active or inactive are those of the source. No stated cut-off is given here; in the data, active = GI50 up to about 1.1 µM and inactive = higher.

What was measured:
Experiment in all cases: NCI-60 cell line screen, 48 h
LOX IMVI = tested on: LOX IMVI
RXF 393 = tested on: RXF 393
EKVX = tested on: EKVX
NCI/ADR-RES = tested on: NCI/ADR-RES
OVCAR-4 = tested on: OVCAR-4
A549 = tested on: A549
SN12C = tested on: SN12C
COLO 205 = tested on: COLO 205
OVCAR-8 = tested on: OVCAR-8
A498 = tested on: A498
M14 = tested on: M14
OVCAR-5 = tested on: OVCAR-5
NCI-H23 = tested on: NCI-H23
T47D = tested on: T47D
SNB-75 = tested on: SNB-75
U-251 = tested on: U-251
HCT-15 = tested on: HCT-15
SK-MEL-28 = tested on: SK-MEL-28
SR = tested on: SR
DLD-1 = tested on: DLD-1

| SMILES | GI50 (LOX IMVI) | GI50 (RXF 393) | GI50 (EKVX) | GI50 (NCI/ADR-RES) | GI50 (OVCAR-4) | GI50 (A549) | GI50 (SN12C) | GI50 (COLO 205) | GI50 (OVCAR-8) | GI50 (A498) | GI50 (M14) | GI50 (OVCAR-5) | GI50 (NCI-H23) | GI50 (T47D) | GI50 (SNB-75) | GI50 (U-251) | GI50 (HCT-15) [µM] | GI50 (SK-MEL-28) | GI50 (SR) | GI50 (DLD-1) |
| --- | --- | --- | --- | --- | --- | --- | --- | --- | --- | --- | --- | --- | --- | --- | --- | --- | --- | --- | --- | --- |
| C=C(C)[C@@H]1CC[C@]2(C(=O)O)CC[C@]3(C)[C@H](CC[C@@H]4[C@@]5(C)CC[C@H](C(=O)/C=C/c6ccc(O)cc6)C(C)(C)[C@@H]5CC[C@]43C)[C@@H]12 | 3.54 µM (inactive) | 6.41 µM (inactive) | 2.47 µM (inactive) | 3.22 µM (inactive) | 9.98 µM (inactive) | 9.73 µM (inactive) | 3.05 µM (inactive) | 2.39 µM (inactive) | 4.3 µM (inactive) | 5.07 µM (inactive) | 7.13 µM (inactive) | 11.5 µM (inactive) | 4.22 µM (inactive) | 4.58 µM (inactive) | > 10 µM (inactive) | 2.93 µM (inactive) | 3.45 | 11.9 µM (inactive) | 4.06 µM (inactive) | – |
| COc1cc2c(cc1OCCCC(=O)Nc1cc(C(=O)Nc3cc(C(=O)Nc4cc(C(=O)NCCCN(C)C)n(C)c4)n(C)c3)n(C)c1)N=C[C@@H]1CCCN1C2=O | 0.933 µM (active) | 1.66 µM (inactive) | 2.89 µM (inactive) | 2.22 µM (inactive) | 1.95 µM (inactive) | 11.2 µM (inactive) | 1.2 µM (inactive) | 1.61 µM (inactive) | 1.79 µM (inactive) | 13.2 µM (inactive) | 1.66 µM (inactive) | 3.16 µM (inactive) | 1.77 µM (inactive) | 1.79 µM (inactive) | 3.3 µM (inactive) | 1.6 µM (inactive) | 1.82 | 2.15 µM (inactive) | 0.367 µM (active) | – |
| CC(=O)N1CC[N+](C)(CCCCN2c3ccccc3Sc3cc(N=[N+]=[N-])ccc32)CC1 | > 100 µM (inactive) | > 100 µM (inactive) | > 100 µM (inactive) | > 100 µM (inactive) | 18 µM (inactive) | > 100 µM (inactive) | > 100 µM (inactive) | > 100 µM (inactive) | > 100 µM (inactive) | > 100 µM (inactive) | > 100 µM (inactive) | > 100 µM (inactive) | > 100 µM (inactive) | > 100 µM (inactive) | > 100 µM (inactive) | > 100 µM (inactive) | > 100 | > 100 µM (inactive) | > 100 µM (inactive) | – |
| CC(C)=CCC[C@@H](C)c1c2ncc[nH]c-2c(C)c(=O)c1O | 25.1 µM (inactive) | 24.6 µM (inactive) | 26.2 µM (inactive) | 4.49 µM (inactive) | 26.1 µM (inactive) | 22.1 µM (inactive) | 28.8 µM (inactive) | 28.8 µM (inactive) | 10 µM (inactive) | 30 µM (inactive) | 27.9 µM (inactive) | 45.6 µM (inactive) | 22.4 µM (inactive) | 25.9 µM (inactive) | 28.2 µM (inactive) | 43.6 µM (inactive) | 6.46 | 48.5 µM (inactive) | 51.3 µM (inactive) | – |
| O=C1CN2CCN(CC2)CC(=O)Nc2ccc(cc2)S(=O)(=O)c2ccc(cc2)NC(=O)CN2CCN(CC2)CC(=O)Nc2ccc(cc2)S(=O)(=O)c2ccc(cc2)N1 | 11 µM (inactive) | 55.2 µM (inactive) | > 100 µM (inactive) | 37.3 µM (inactive) | > 100 µM (inactive) | > 63.2 µM (inactive) | > 97.5 µM (inactive) | 40.7 µM (inactive) | 38.8 µM (inactive) | > 100 µM (inactive) | 25.4 µM (inactive) | 37.3 µM (inactive) | 44 µM (inactive) | 67.6 µM (inactive) | > 100 µM (inactive) | 13.7 µM (inactive) | 13.4 | 48.4 µM (inactive) | 4.56 µM (inactive) | – |
| COc1ccc(C2c3cc4c(cc3OC(O)(CO)C2C(=O)O)OCO4)c(OC)c1OC.COc1ccc(C2c3cc4c(cc3OC3(O)COC(=O)C23)OCO4)c(OC)c1OC (stereo not given) | > 100 µM (inactive) | 74 µM (inactive) | > 100 µM (inactive) | – | > 100 µM (inactive) | > 100 µM (inactive) | > 100 µM (inactive) | > 100 µM (inactive) | > 100 µM (inactive) | – | > 100 µM (inactive) | – | > 100 µM (inactive) | – | 75.2 µM (inactive) | > 100 µM (inactive) | > 100 | > 100 µM (inactive) | – | > 100 µM (inactive) |
| CC(=O)OC12CC(C)C3(O)C4C=C(C)C(=O)[C@@]4(O)CC(CO)=C[C@H]3C1C2(C)C (stereo not given in full) | > 10 µM (inactive) | > 100 µM (inactive) | > 10 µM (inactive) | > 10 µM (inactive) | > 10 µM (inactive) | 2.38 µM (inactive) | > 100 µM (inactive) | 1.88 µM (inactive) | > 10 µM (inactive) | 0.41 µM (active) | > 10 µM (inactive) | > 10 µM (inactive) | > 10 µM (inactive) | > 100 µM (inactive) | > 10 µM (inactive) | > 10 µM (inactive) | > 10 | > 10 µM (inactive) | > 10 µM (inactive) | – |
| CSc1c(C#N)c(O)nc(N)c1C(=O)Nc1ccc(C)cc1 | > 100 µM (inactive) | > 100 µM (inactive) | > 100 µM (inactive) | > 100 µM (inactive) | > 100 µM (inactive) | > 100 µM (inactive) | > 100 µM (inactive) | > 100 µM (inactive) | > 100 µM (inactive) | 38.9 µM (inactive) | > 100 µM (inactive) | > 100 µM (inactive) | 90.6 µM (inactive) | > 100 µM (inactive) | > 100 µM (inactive) | > 100 µM (inactive) | > 100 | > 100 µM (inactive) | > 100 µM (inactive) | – |
| CCN(CC)CCNc1ccc(C)c2sc3ccccc3c(=O)c12 [LUCANTHONE HYDROCHLORIDE] | 1.49 µM (inactive) | 1.98 µM (inactive) | 6.82 µM (inactive) | 4.3 µM (inactive) | 4.66 µM (inactive) | 2.61 µM (inactive) | 2.67 µM (inactive) | 1.67 µM (inactive) | 3.4 µM (inactive) | 2.23 µM (inactive) | 1.75 µM (inactive) | 3.05 µM (inactive) | 3.33 µM (inactive) | 7.08 µM (inactive) | 2.06 µM (inactive) | 2.33 µM (inactive) | 2.75 | 1.82 µM (inactive) | 2.33 µM (inactive) | – |
| CC(=O)/C=N/CC(=O)O | > 100 µM (inactive) | > 100 µM (inactive) | > 100 µM (inactive) | > 100 µM (inactive) | > 100 µM (inactive) | > 100 µM (inactive) | > 100 µM (inactive) | > 100 µM (inactive) | > 100 µM (inactive) | > 100 µM (inactive) | > 100 µM (inactive) | > 100 µM (inactive) | > 100 µM (inactive) | > 100 µM (inactive) | > 100 µM (inactive) | > 100 µM (inactive) | > 100 | > 100 µM (inactive) | > 100 µM (inactive) | – |
| CCC(C)C(N)C(=O)N/N=C\c1c2c(nc3ccccc13)-c1cc3c(c(=O)n1C2)COC(=O)[C@]3(O)CC (stereo not given in full) | 0.0132 µM (active) | < 0.0284 µM (active) | 1.89 µM (inactive) | 0.232 µM (active) | 1.43 µM (inactive) | 0.173 µM (active) | 0.0155 µM (active) | 2.95 µM (inactive) | 0.0453 µM (active) | 0.205 µM (active) | 0.039 µM (active) | 1.52 µM (inactive) | 0.0112 µM (active) | < 0.01 µM (active) | 0.0256 µM (active) | < 0.01 µM (active) | 0.356 | 0.259 µM (active) | < 0.01 µM (active) | – |
| COc1ccc(CC(=O)c2cc(OC)c(OC)cc2C)cc1OC | – | – | 63 µM (inactive) | – | 29.3 µM (inactive) | 71.6 µM (inactive) | 55.1 µM (inactive) | > 100 µM (inactive) | > 100 µM (inactive) | > 100 µM (inactive) | > 100 µM (inactive) | > 100 µM (inactive) | 20.5 µM (inactive) | – | > 100 µM (inactive) | > 100 µM (inactive) | 46.5 | 81.3 µM (inactive) | – | > 100 µM (inactive) |
| O=c1[nH]nc(-c2ccccc2)c2[nH]c3c(c12)Cc1ccccc1-3 | 6.11 µM (inactive) | 6.19 µM (inactive) | 6.79 µM (inactive) | 2.14 µM (inactive) | 3.79 µM (inactive) | 21.2 µM (inactive) | 2.32 µM (inactive) | 1.61 µM (inactive) | 6.61 µM (inactive) | 2.35 µM (inactive) | 4.06 µM (inactive) | 7.16 µM (inactive) | > 26.5 µM (inactive) | > 100 µM (inactive) | 3.28 µM (inactive) | 3.64 µM (inactive) | 0.374 | 6.01 µM (inactive) | 0.069 µM (active) | – |
| COc1ccc(C(=O)c2ccc(-n3cc(/C=C/[N+](=O)[O-])c4ccccc43)cc2)cc1 | 6.55 µM (inactive) | 5.45 µM (inactive) | 23.6 µM (inactive) | 24.3 µM (inactive) | 29.4 µM (inactive) | 80.4 µM (inactive) | 16.8 µM (inactive) | 32.3 µM (inactive) | 20.3 µM (inactive) | 22.4 µM (inactive) | 29 µM (inactive) | > 76.4 µM (inactive) | 20.1 µM (inactive) | 2.07 µM (inactive) | 91 µM (inactive) | 11.3 µM (inactive) | 7 | 28.1 µM (inactive) | 8.81 µM (inactive) | – |
| O=C1/C(=C/c2ccc(Cl)cc2)CNC/C1=C\c1ccc(Cl)cc1 | – | – | – | – | – | 3.4 µM (inactive) | 2.67 µM (inactive) | 2.03 µM (inactive) | 3.6 µM (inactive) | 2.32 µM (inactive) | 1.89 µM (inactive) | – | 1.95 µM (inactive) | – | 2.9 µM (inactive) | 1.36 µM (inactive) | 1.62 | 1.82 µM (inactive) | – | 2.38 µM (inactive) |
